Measured values: patent US20240316020A1, “Novel Pyridine Compounds” (ICAGEN, LLC, priority 2021, published 2024)

Experiments:
[1] = Human liver microsomal clearance; assay type: in vitro ADME; details: both sexes, liver microsomes, Table B, 0.5 μM compound, 0.25 mg/mL microsomes, NADPH, 37° C., read-out: Human liver microsomal intrinsic clearance CLint
Protocol: Pooled mixed gender human liver microsomes were purchased from BioIVT at a concentration of 20 mg protein/mL and stored at −80° C. Incubations were conducted in V-bottomed 350 μL polypropylene 96-well plates. Compounds were diluted in phosphate buffer (final concentrations 0.5 μM compound, 0.5% DMSO) and mixed with diluted liver microsomes (fc 0.25 mg/mL). This mixture was aliquoted onto the assay plate (six wells per compound) and pre-warmed at 37° C. for ten minutes. Addition of NADPH (fc 0.5 mM, final incubation volume 100 μL) to each well started the time course. Reactions were stopped at 0.5, 3, 5, 10, 20 & 30 minutes by addition of 150 μL acetonitrile containing internal standard (IS; 0.125 μg/mL daidzein) and stopped samples were removed to a clean polypropylene plate. At the end of the assay the plate was refrigerated for an hour and then centrifuged at 3000 rpm for 10 minutes at 4° C. A sample of the supernatant was removed to a fresh plate and diluted 10-fold with 50:50 acetonitrile:water, then heat sealed. Analysis was by liquid chromatography coupled with tandem mass spectrometry (LC-MS/MS) for analyte and IS levels. Ratios of the analyte and IS peak areas were generated for results calculation (IS ratio). Dextromethorphan and verapamil were included in each experiment as controls for high clearance compounds. IS ratio data were converted into natural log values which were plotted against time and a linear regression fit applied. The slope of the line was returned and converted into the elimination constant (kel) by multiplying by −1. The elimination constant was used to calculate the in vitro CLint: in vitro CLint (μL/min/mg protein) is kel* (1000/protein conc in mg/mL).

[2] = molecular target: human Kv7.2 (Homo sapiens (Human), UniProt O43526); assay: SyncroPatch 384 electrophysiology, CHO cells stably expressing human Kv7.2; assay type: cell-based
Protocol: (§1) The potency of Kv7 potentiators was determined using the SyncroPatch 384 (Nanion) high throughput electrophysiology platform.
(§2) CHO cells stably expressing either human Kv7.2, Kv7.4 or Kv7.5/7.3 under a constitutive CMV promoter were used for these studies. Cells were maintained in F12 Hams+1 mM L-glutamine (Hyclone) supplemented with 10% FBS (Sigma), 0.3×NEAA (Non-essential Gamino-acids) and 400 ug/ml G418 at 37° C. in 5% CO2. Cells were cultured in T-225 flasks (Nunc) for 2-3 days to reach 85-95% confluence prior to electrophysiological recording.
(§3) Earle's balanced salt solution (in mM): 135 NaCl, 5.4 KCl, 5 Glucose, 2 CaCl2, 1 MgCl2, 5 HEPES, pH 7.4. Seal enhancer solution (in mM): 90 NaCl, 3 KCl, 35 CaCl2, 10 MgCl2, 10 HEPES, pH 7.4. Extracellular recording solution (in mM): 71 NaCl, 70 NMDG, 13 KCl, 5 Glucose, 2 CaCl2, 1 MgCl2, 10 HEPES, pH 7.4. Intracellular recording solution (in mM): 130 KF, 20 KCl, 4 EGTA, 10 HEPES, 2 EDTA, 0.01 Escin, pH 7.2.
(§4) Cells were harvested for electrophysiological recording upon reaching appropriate confluence. Cells were first washed in DPBS (Hyclone, Cat #SH30028.03) and then 2 ml of Accutase (MP Biomedicals #1000449) was added at 28° C. until ˜90% of cells were suspended. F12 HAM's media+1 mM L-glutamine (Hyclone, SH30026.02) was then added to the flask to dilute the accutase. Cells were then triturated until a single cell suspension was achieved, a cell count was performed, and cells were centrifuged for 2 min. at 1,000 rpm. Media was then aspirated, and cells were resuspended in Earle's balanced salt solution to a concentration of 0.75×10^6 cells/ml and allowed to recover for 25 min at 10° C.
(§5) At the beginning of each assay, 20 μl of cell suspension was dispensed into each well of a multi-hole 384-well SyncroPatch chip by the onboard pipettor. Cell sealing was initiated, and seal enhancer solution was added to facilitate seal formation. Upon completion of sealing, cells were washed 3 times with extracellular recording solution and the assay voltage protocol was started. Human Kv7.2, Kv7.4 or Kv7.5/7.3 channels were evaluated using a voltage protocol in which cells were voltage-clamped at a holding potential of −60 mV. Potassium currents were continuously activated with a series of three voltage steps to −30 mV for 3 seconds, 40 mV for 1 second and −90 mV for 4 seconds with 12 seconds between successive voltage sweeps. Potassium currents were measured from the −90 mV repolarizing step. Baseline current was assessed for 3.5 minutes prior to the addition of 5.6 μM zinc pyrithione (1 μM for Kv7.4). Kv7.2, Kv7.4 or Kv7.5/7.3 current in the presence of zinc pyrithione was acquired over five minutes to allow channels to reach steady state activity prior to addition of test agents. Channel activity was monitored for three minutes preceding the addition of 30 μM ML-213 (3 minutes) to achieve maximum activation.
(§6) Data were collected on the SyncroPatch platform using PatchControl software (Nanion) and processed and analyzed using DataControl Software (Nanion). Percent activation was calculated from potassium current as follows: The average current for the 5 sweeps in the presence of zinc pyrithione immediately preceding test agent addition was taken as the ‘control’ data. Likewise, the average potassium current in the presence of test agents 5 sweeps immediately preceding addition of 30 μM ML-213 was determined for ‘drug’ data. The average potassium current 5 sweeps immediately prior to addition of 150 mM TEA+10 μM XE-991 was determined for ‘max activation’ data while average currents from 5 sweeps immediately following addition of TEA was determined for ‘max inhibition’ data. Percent activation for each of the 384-wells of a sealchip was calculated as ((‘drug’−‘max inhibition’)/(‘max activation’−‘max inhibition’))*100 with Pipeline Pilot (Accelrys). […]

[3] = molecular target: human Kv7.5/7.3 (Homo sapiens (Human), UniProt O43525+Q9NR82); assay: SyncroPatch 384 electrophysiology, CHO cells stably expressing human Kv7.5/7.3; assay type: cell-based; details: Table A; for Kv7.5/7.3/Kv7.2 selectivity ratio: Kv7.5/7.3 EC50 over Kv7.2 EC50
Protocol: as §1, §2, §3, §4, §5, §6

[4] = Table 1, CHO cells, potassium current at -90 mV step, in presence of zinc pyrithione

Chain of human Kv7.5/7.3 (Q9NR82 whole entry): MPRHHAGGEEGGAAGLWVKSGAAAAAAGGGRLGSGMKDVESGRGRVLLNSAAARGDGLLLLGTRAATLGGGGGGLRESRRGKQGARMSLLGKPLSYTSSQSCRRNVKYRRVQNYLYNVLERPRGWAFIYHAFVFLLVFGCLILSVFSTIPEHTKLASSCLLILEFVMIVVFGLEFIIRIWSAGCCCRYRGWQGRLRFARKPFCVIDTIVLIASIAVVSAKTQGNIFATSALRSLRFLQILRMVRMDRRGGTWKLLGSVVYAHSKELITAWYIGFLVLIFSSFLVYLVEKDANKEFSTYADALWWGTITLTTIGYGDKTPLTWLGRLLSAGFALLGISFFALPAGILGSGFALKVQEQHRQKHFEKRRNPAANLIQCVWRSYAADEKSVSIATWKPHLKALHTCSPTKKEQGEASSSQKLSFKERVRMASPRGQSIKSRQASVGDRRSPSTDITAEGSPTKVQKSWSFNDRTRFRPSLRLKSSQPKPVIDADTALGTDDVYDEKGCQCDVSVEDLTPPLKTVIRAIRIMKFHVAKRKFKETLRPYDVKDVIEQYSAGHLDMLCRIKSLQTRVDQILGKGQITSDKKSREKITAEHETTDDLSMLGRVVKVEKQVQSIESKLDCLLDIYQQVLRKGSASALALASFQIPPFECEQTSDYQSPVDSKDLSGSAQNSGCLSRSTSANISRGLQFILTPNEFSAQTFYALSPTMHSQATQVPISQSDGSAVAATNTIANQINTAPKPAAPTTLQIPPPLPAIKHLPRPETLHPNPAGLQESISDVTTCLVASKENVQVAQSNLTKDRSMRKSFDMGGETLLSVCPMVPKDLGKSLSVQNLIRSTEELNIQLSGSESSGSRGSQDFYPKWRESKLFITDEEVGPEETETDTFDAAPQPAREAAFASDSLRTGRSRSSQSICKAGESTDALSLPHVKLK
Chain of human Kv7.5/7.3 (O43525 whole entry): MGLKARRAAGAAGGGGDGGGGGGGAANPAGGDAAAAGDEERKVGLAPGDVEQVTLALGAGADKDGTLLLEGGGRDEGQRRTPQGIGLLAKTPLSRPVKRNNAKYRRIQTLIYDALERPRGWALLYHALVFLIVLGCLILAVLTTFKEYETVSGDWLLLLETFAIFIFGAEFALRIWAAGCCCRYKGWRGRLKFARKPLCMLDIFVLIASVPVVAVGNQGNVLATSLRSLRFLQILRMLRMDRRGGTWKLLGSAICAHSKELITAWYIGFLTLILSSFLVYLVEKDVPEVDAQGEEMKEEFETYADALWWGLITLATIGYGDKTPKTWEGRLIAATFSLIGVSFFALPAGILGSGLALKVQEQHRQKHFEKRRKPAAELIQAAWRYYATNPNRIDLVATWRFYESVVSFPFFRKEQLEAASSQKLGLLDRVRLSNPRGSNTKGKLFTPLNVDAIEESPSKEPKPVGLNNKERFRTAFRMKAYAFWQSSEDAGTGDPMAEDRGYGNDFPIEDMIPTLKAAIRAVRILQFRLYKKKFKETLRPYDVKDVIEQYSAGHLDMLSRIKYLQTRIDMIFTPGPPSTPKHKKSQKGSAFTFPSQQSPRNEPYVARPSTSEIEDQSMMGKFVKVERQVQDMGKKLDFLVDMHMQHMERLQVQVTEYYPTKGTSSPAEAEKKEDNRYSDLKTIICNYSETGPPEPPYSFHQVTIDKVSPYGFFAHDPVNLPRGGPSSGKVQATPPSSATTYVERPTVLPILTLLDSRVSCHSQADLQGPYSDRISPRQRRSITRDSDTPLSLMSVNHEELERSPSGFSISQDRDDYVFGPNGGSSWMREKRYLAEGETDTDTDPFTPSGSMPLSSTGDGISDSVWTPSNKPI
Chain of human Kv7.2 (O43526 whole entry): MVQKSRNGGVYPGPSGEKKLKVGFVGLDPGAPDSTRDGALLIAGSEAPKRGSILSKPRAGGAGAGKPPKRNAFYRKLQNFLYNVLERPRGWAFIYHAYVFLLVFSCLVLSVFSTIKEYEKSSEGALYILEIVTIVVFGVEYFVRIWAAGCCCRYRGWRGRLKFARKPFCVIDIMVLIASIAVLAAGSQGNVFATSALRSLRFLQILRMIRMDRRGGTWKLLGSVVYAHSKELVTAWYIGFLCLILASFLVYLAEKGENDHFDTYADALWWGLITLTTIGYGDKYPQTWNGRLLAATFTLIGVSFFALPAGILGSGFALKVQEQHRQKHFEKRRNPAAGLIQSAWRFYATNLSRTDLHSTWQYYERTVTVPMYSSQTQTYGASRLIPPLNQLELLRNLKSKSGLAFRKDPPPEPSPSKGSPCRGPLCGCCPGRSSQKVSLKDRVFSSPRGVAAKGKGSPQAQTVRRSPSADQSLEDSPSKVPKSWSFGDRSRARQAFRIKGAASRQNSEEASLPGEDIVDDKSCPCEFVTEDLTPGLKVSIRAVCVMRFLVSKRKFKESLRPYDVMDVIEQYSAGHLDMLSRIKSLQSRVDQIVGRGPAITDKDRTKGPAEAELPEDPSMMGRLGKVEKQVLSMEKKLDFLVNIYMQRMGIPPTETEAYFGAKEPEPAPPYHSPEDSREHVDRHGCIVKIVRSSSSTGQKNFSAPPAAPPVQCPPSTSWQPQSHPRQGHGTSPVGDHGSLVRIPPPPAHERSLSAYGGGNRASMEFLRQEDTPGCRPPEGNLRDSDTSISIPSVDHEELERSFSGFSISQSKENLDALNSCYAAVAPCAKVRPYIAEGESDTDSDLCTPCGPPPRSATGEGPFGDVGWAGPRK

microsomal CLint at 0.5 μM [1] | EC50 [2, 4] | EC50 ([2]; Table A) | EC50 [3] | Kv7.5/7.3/Kv7.2 selectivity ratio [3] | SMILES
11.5 µL/min/mg | 440 nM | – | – | – | O=C(NCc1ccnc(OC(F)F)c1)N[C@H]1CC2(CCC2)[C@H]1O (racemic) [Example 26, 1-[[2-(difluoromethoxy)pyridin-4-yl]methyl]-3-[rac-(2R,3S)-3-hydroxyspiro[3.3]heptant-2-yl]urea]
– | 8490 nM | – | – | – | O=C(NCc1ccnc(-n2cccn2)c1)NC1CCOC2(CCCC2)C1 (centres unmarked) [Example 2, 1-(6-oxaspiro[4.5]decan-9-yl)-3-[(2-pyrazol-1-ylpyridin-4-yl)methyl]urea]
– | 20 nM | – | – | – | CC(F)(F)COc1cc(CNC(=O)NC2CC3(CCC3)C2)ccn1 [Example 5, 1-[[2-(2,2-difluoropropoxy)pyridin-4-yl]methyl]-3-spiro[3.3]heptan-2-ylurea]
– | 50 nM | – | – | – | O=C(NCc1ccnc(OCC2CC2)c1)NC1CC2(CCC2)C1 [Example 7, 1-[[2-(cyclopropylmethoxy)pyridin-4-yl]methyl]-3-spiro[3.3]heptan-2-ylurea]
5.2 µL/min/mg | 60 nM | – | – | – | O=C(NCc1ccnc(OC(F)F)c1)NC1CC2(CC2)C1 [Example 8, 1-[[2-(difluoromethoxy)pyridin-4-yl]methyl]-3-spiro[2.3]hexan-5-ylurea]
10.6 µL/min/mg | 1440 nM | – | – | – | O=C(NCc1ccnc(OC(F)F)c1)NC1COC2(CCC2)C1 (centres unmarked) [Example 22, 1-[[2-(difluoromethoxy)pyridin-4-yl]methyl]-3-(5-oxaspiro[3.4]octan-7-yl)urea]
– | 340 nM | 340 nM | > 30000 nM | >89 | O=C(NCc1ccnc(OC(F)F)c1)NC1C(F)(F)C12CCC2 (centres unmarked) [Example 24, 1-[[2-(difluoromethoxy)pyridin-4-yl]methyl]-3-(2,2-difluorospiro[2.3]hexan-1-yl)urea]
– | 450 nM | – | – | – | O=C(NCc1ccnc(OC(F)F)c1)NC1COC2(CCCCC2)C1 (centres unmarked) [Example 30, 1-[[2-(difluoromethoxy)pyridin-4-yl]methyl]-3-(1-oxaspiro[4.5]decan-3-yl)urea]

Further lines, the molecule ahead of its results:

SMILES | microsomal CLint at 0.5 μM [1] | EC50 [2, 4] | EC50 ([2]; Table A) | EC50 [3] | Kv7.5/7.3/Kv7.2 selectivity ratio [3]
O=C(NCc1ccnc(OC(F)F)c1)NC1COC2(CCCC2)C1 (centres unmarked) [Example 3, 1-[[2-(difluoromethoxy)pyridin-4-yl]methyl]-3-(1-oxaspiro[4.4]nonan-3-yl)urea] | – | 500 nM | – | – | –
O=C(NCc1ccnc(OC(F)F)c1)NC1CC2(CCC2)C1 [Example 4, 1-[[2-(difluoromethoxy)pyridin-4-yl]methyl]-3-spiro[3.3]heptan-2-ylurea] | – | 20 nM | – | – | –
CC(F)COc1cc(CNC(=O)NC2CC3(CCC3)C2)ccn1 (centres unmarked) [Example 6, 1-[[2-(2-fluoropropoxy)pyridin-4-yl]methyl]-3-spiro[3.3]heptan-2-ylurea] | – | 60 nM | – | – | –
CC(F)(F)c1cc(CNC(=O)NC2CC3(CCC3)C2)ccn1 [Example 9, 1-[[2-(1,1-difluoroethyl)pyridin-4-yl]methyl]-3-spiro[3.3]heptan-2-ylurea] | 17.6 µL/min/mg | 190 nM | – | – | –
O=C(NCc1ccnc(C(F)(F)F)c1)NC1CC2(CCC2)C1 [Example 10] | – | 190 nM | – | – | –
O=C(NCc1ccnc(OC(F)F)c1)NC1CCC2(CCC2)C1 (centres unmarked) [Example 11, 1-[[2-(difluoromethoxy)pyridin-4-yl]methyl]-3-spiro[3.4]octan-7-ylurea] | – | 20 nM | – | – | –
O=C(NCc1ccnc(OCC(F)(F)F)c1)NC1CC2(CC2)C1 [Example 12, 1-spiro[2.3]hexan-5-yl-3-[[2-(2,2,2-trifluoroethoxy)pyridin-4-yl]methyl]urea] | 15.2 µL/min/mg | 170 nM | – | – | –
O=C(NC1CC2(CCC2)C1)NC(CO)c1ccnc(OCC(F)(F)F)c1 (centres unmarked) [Example 13, 1-[2-hydroxy-1-[2-(2,2,2-trifluoroethoxy)pyridin-4-yl]ethyl]-3-spiro[3.3]heptan-2-ylurea] | – | 70 nM | – | – | –
O=C(NCc1ccnc(OC(F)F)c1)NC1CC2(C1)CC2(F)F (centres unmarked) [Example 15, 1-[[2-(difluoromethoxy)pyridin-4-yl]methyl]-3-(2,2-difluorospiro[2.3]hexan-5-yl)urea] | 11.3 µL/min/mg | 3100 nM | – | – | –
O=C(NCc1ccnc(OC(F)F)c1)NC1CC2(CC(F)C2)C1 (centres unmarked) [Example 16, 1-[[2-(difluoromethoxy)pyridin-4-yl]methyl]-3-(2-fluorospiro[3.3]heptan-6-yl)urea] | 10.7 µL/min/mg | 150 nM | – | – | –
O=C(NCc1ccnc(OC(F)F)c1)NC1(CO)CC2(CCC2)C1 [Example 18, 1-[[2-(difluoromethoxy)pyridin-4-yl]methyl]-3-[2-(hydroxymethyl)spiro[3.3]heptan-2-yl]urea] | – | 410 nM | – | – | –
O=C(NCc1ccnc(OC(F)F)c1)NC1CCC2(C1)CC2(F)F (centres unmarked) [Example 19, 1-[[2-(difluoromethoxy)pyridin-4-yl]methyl]-3-(2,2-difluorospiro[2.4]heptan-6-yl)urea] | – | 350 nM | 350 nM | > 30000 nM | >86
O=C(NCc1ccnc(OC(F)F)c1)NC1COC12CCCCC2 (centres unmarked) [Example 20, 1-[[2-(difluoromethoxy)pyridin-4-yl]methyl]-3-(1-oxaspiro[3.5]nonan-3-yl)urea] | – | 8430 nM | – | – | –
O=C(NCc1ccnc(OC(F)F)c1)NC1CC12CCC2 (centres unmarked) [Example 23, 1-[[2-(difluoromethoxy)pyridin-4-yl]methyl]-3-spiro[2.3]hexan-2-ylurea] | – | 1940 nM | 1940 nM | > 30000 nM | >15
O=C(NCc1ccnc(OC(F)F)c1)N[C@@H]1CC2(CCC2)[C@@H]1O [Example 28, 1-[[2-(difluoromethoxy)pyridin-4-yl]methyl]-3-[(2R,3S)-3-hydroxyspiro[3.3]heptan-2-yl]urea] | – | 500 nM | 500 nM | > 30000 nM | >60
O=C(NCc1ccnc(OCC(F)CF)c1)NC1CC2(CCC2)C1 (centres unmarked) [Example 29, 1-[[2-(2,3-difluoropropoxy)pyridin-4-yl]methyl]-3-spiro[3.3]heptan-2-ylurea] | – | 100 nM | – | – | –
O=C(NCc1ccnc(OC(F)F)c1)NC1CCC2(CCC2)OC1 (centres unmarked) [Example 32, 1-[[2-(difluoromethoxy)pyridin-4-yl]methyl]-3-(5-oxaspiro[3.5]nonan-7-yl)urea] | – | 550 nM | – | – | –
